Our source for the IC50 values is ChEMBL document CHEMBL1152764, “Penicilliols A and B, novel inhibitors specific to mammalian Y-family DNA polymerases” (Bioorg Med Chem, 2009).

A word on the IC50: it is the concentration that gives 50% inhibition. Read a high IC50 as weaker potency in that assay.

This assay concerns the target T1, DNA polymerase iota (Mus musculus, UniProt Q6R3M4).
T1 sequence (Q6R3M4 whole entry): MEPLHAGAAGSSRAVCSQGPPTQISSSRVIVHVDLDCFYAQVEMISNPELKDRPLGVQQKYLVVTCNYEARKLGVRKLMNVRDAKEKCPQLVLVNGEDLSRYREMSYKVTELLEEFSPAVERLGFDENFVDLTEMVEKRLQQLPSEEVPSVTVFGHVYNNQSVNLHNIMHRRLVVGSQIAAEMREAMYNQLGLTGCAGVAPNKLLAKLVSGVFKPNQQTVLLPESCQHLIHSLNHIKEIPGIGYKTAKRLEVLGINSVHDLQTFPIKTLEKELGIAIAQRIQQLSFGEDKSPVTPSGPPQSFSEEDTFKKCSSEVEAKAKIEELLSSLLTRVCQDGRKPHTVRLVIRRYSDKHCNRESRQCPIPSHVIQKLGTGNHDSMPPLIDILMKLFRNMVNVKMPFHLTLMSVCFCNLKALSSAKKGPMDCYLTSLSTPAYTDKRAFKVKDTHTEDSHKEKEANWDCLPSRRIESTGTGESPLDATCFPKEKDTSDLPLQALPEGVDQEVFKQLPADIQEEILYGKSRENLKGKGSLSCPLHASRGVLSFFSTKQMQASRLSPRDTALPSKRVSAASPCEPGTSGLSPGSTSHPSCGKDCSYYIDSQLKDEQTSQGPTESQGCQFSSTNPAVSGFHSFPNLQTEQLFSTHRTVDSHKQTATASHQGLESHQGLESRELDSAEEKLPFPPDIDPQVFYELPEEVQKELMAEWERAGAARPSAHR
The experiment in a line: Inhibition of mouse DNA polymerase iota.

Compound `C/C=C/C(=O)C1=C(OC)OC(C)(/C=C/C=C/C(C)O)C1=O` (configuration not stated) [PENICILLIOL A] registered an IC50 of 19.8 µM. In turn, `COC1=C(C(=O)CC(C)O)C(=O)C(C)(/C=C/C=C/C(C)O)O1` (configuration not stated) [PENICILLIOL B] registered an IC50 of 32.5 µM.
